# Literature values as cited in PMC9788431, “Combination of Docking-Based and Pharmacophore-Based Virtual Screening Identifies Novel Agonists That Target the Urotensin Receptor” (Molecules, 2022).
# Target: T1, UT receptor (Homo sapiens, UniProt Q9UKP6)
# T1 construct: SNAP-tag; expressed in transfected cells; host or cells: 293A8 (HEK293A stably transfected with the UT receptor); inferred, the calcium-assay paragraph names no cells
# T1 sequence (Q9UKP6 1-389): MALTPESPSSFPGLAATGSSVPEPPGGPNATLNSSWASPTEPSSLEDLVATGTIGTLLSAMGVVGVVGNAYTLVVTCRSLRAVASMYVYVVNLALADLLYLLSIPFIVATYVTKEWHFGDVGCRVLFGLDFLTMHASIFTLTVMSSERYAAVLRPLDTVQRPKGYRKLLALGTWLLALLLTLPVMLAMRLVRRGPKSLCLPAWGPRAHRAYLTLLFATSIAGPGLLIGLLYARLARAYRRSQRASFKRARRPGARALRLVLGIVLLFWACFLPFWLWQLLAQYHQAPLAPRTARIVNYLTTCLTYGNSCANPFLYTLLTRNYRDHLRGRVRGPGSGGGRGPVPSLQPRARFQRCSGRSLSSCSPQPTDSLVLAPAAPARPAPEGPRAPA
# Parameters: method as in ChEMBL database and others
# Conditions: antagonist; Table S1 benchmarking ligands; ref ChEMBL database and others; cited from earlier work
row,SMILES,IC50 [µM]
1,COc1ccc([C@@H](CCCN(C)S(=O)(=O)c2cccs2)N2Cc3c(cccc3N3CCN(C4CCC4)CC3)C2=O)cc1OC [CHEMBL571537],0.51
2,Cc1cccc(CC2(O)CCN(CCNC(=O)Nc3ccnc4ccsc34)CC2)c1 [CHEMBL3358683],0.14
3,O=C(NCCN1CCC(O)(Cc2ccccc2)CC1)Nc1ccnc2sccc12 [CHEMBL3358673],0.93
4,Cc1cc(NC(=O)NCCN2CCC(O)(Cc3ccccc3)CC2)c2ccccc2n1 [CHEMBL1164032],0.0036
5,Cc1ccc2sc(C(=O)NC3CCN(Cc4ccc(OC5CCNCC5)c(Br)c4)CC3)cc2c1 [CHEMBL3968841],0.074
6,O=C(NC1CCN(Cc2ccc(OC3CCNCC3)c(Br)c2)CC1)c1ccco1 [CHEMBL3942137],0.77
7,CC(C)[C@H](NC(=O)[C@@H]1CSSC[C@H](NC(=O)[C@H](C)N)C(=O)N[C@@H](Cc2ccccc2)C(=O)N2CCc3ccccc3[C@H]2C(=O)N[C@@H](CCCCN)C(=O)N[C@@H](Cc2ccc(O)cc2)C(=O)N1)C(=O)O [CHEMBL3104464],0.01
8,CCc1cc(NC(=O)NCCN2CCC(O)(Cc3ccccc3)CC2)c2sccc2n1 [CHEMBL3358680],0.06
9,COc1ccc([C@@H](CCCNS(=O)(=O)c2c(C)n[nH]c2C)N2C(=O)c3cccc(N4CCN([C@H](C)c5ccccc5)CC4)c3C2=O)cc1OC [CHEMBL567759],0.047
10,O=C(NCCN1CCC(O)(Cc2ccccc2)CC1)Nc1ccnc2ccoc12 [CHEMBL3358671],0.45
11,COc1ccc([C@@H](CCCNS(=O)(=O)c2cccs2)N2C(=O)c3cccc(N4CCN([C@H](C)c5ccccc5)CC4)c3C2=O)cc1OC [CHEMBL568165],0.24
12,CC(C)[C@H](NC(=O)[C@@H]1CSSC[C@H](NC(=O)[C@H](C)N)C(=O)N[C@@H](Cc2ccccc2)C(=O)N[C@@H]2Cc3c([nH]c4ccccc34)CN(C2=O)[C@@H](CCCCN)C(=O)N[C@@H](Cc2ccc(O)cc2)C(=O)N1)C(=O)O [CHEMBL3104461],0.06
13,N#Cc1ccc2sc(C(=O)NC3CCN(Cc4ccc(OC5CCNCC5)c(Br)c4)CC3)cc2c1 [CHEMBL3977330],0.025
14,CC(C)[C@H](NC(=O)[C@@H]1CSSC[C@H](NC(=O)[C@H](C)N)C(=O)N[C@@H](Cc2ccccc2)C(=O)N[C@@H](Cc2c[nH]c3ccccc23)C(=O)N[C@@H](CCCCN)C(=O)N[C@@H](Cc2ccc(O)cc2)C(=O)N1)C(=O)O [CHEMBL3104471],0.012
15,COc1cc(Br)c(S(=O)(=O)Nc2ccc(Cl)c(O[C@@H]3CCN(C)C3)c2)cc1OC [CHEMBL2348501],0.043
16,COc1ccc([C@@H](CCCNS(=O)(=O)c2cccs2)N2C(=O)c3cccc(N4CCN(C)CC4)c3C2=O)cc1OC [CHEMBL567949],0.22
17,Cc1ccccc1CC1(O)CCN(CCNC(=O)Nc2ccnc3ccsc23)CC1 [CHEMBL3358682],0.02
18,COc1ccc([C@@H](CCCNS(=O)(=O)c2cccs2)N2C(=O)c3cccc(N4CCN(C(C)C)CC4)c3C2=O)cc1OC [CHEMBL567736],0.15
19,O=C(NC1CCN(Cc2ccc(OC3CCNCC3)c(Br)c2)CC1)c1cc2ccc(-c3ccc(Cl)cc3)cc2s1 [CHEMBL3907266],0.14
20,O=C(NC1CCN(Cc2ccc(OC3CCNCC3)c(Br)c2)CC1)c1cnccn1 [CHEMBL3920751],0.61
21,CN(C)CCCOc1ccc(CN2CC[C@H](NC(=O)c3ccc(Cl)c(Cl)c3)C2)cc1 [CHEMBL366221],0.17
22,CC(C)[C@H](NC(=O)[C@@H]1CSSC[C@H](NC(=O)[C@H](C)N)C(=O)N[C@@H](Cc2ccccc2)C(=O)N[C@@H](Cc2cccc3ccccc23)C(=O)N[C@@H](CCCCN)C(=O)N[C@@H](Cc2ccc(O)cc2)C(=O)N1)C(=O)O [CHEMBL3104637],0.017
23,O=C(NC1CCN(Cc2ccc(OC3CCNCC3)c(Br)c2)CC1)c1cc2cc(-c3ccccc3)ccc2s1 [CHEMBL3949719],0.31
24,O=C(N[C@H]1CCN(Cc2ccc(OC3CCNCC3)c(Br)c2)C1)c1ccc(Cl)c(Cl)c1 [CHEMBL495075],0.004
25,O=C(NCCN1CCC(O)(Cc2ccccc2Br)CC1)Nc1ccnc2ccsc12 [CHEMBL3358685],0.02
